Measured values taken from paper PMC7335011 (The Journal of General Physiology, 2020).

Target: MthK (Methanothermobacter thermautotrophicus, UniProt O27564)
Type: biochemical

Row | SMILES | IC50 [µM]
1 | NCCCCNCCCN [SPD^3+] | 860 ± 20
2 | NCCCNCCCCNCCCN [SPM^4+] | 77 ± 6
